Here are results for two compounds from patent US12240920B2, “Cyclic peptidomimetic for the treatment of neurological disorders” (Brown University, priority 2019, dated 2025).

Series [1] deals with repeated corticosterone-injected rats. As to conditions: CORT administration model; cited from earlier work.
Another series can be described thus: in vivo. As to conditions: plasma.

Turning to `CNC1(c2ccccc2Cl)CCCCC1=O` (centres unmarked) [ketamine], the depressive-like behavior result in series [1] was “significantly reduced depressive-like behavior”.

As a reminder, the half-life is how long it takes for the measured level to halve. The low end stands for fast loss, the high end for slow loss. Take `CC(C)[C@H](NC(=O)[C@@H]1CCC(=O)NCCC(=O)NCCCC[C@H](NC(=O)[C@H](CCCCN)NC(=O)[C@H](Cc2ccc(O)cc2)NC(=O)[C@H](CC(N)=O)NC(=O)[C@H](CCCCN)NC(=O)[C@@H](N)CSSC[C@@H](N)C(=O)N[C@@H](CCCNC(=N)N)C(=O)N[C@@H](CCCNC(=N)N)C(=O)N[C@@H](CCCNC(=N)N)C(=O)N[C@@H](CCCNC(=N)N)C(=O)N[C@@H](CCCNC(=N)N)C(=O)N[C@@H](CCCNC(=N)N)C(=O)N[C@@H](CCCNC(=N)N)C(N)=O)C(=O)N[C@@H]([C@@H](C)O)C(=O)N1)C(=O)O` [CN2097, R7Cs-sCYK[KTE(β-Ala)]V]: in the series “in vivo”, the half-life was approximately 1 h.
